# Source: PubChem BioAssay AID246 (DTP/NCI, 2004)
# “And” between values parts separate entries of the source, which are not always exact repeats. Identical values can stand only once. Toxic doses and inconclusive results are not listed.
# Tested on: BDF1 mice, P1081 chloroleukemia ip, survival T/C
# Assay: NCI In Vivo Anticancer Drug Screen. Data for tumor model P1081 Chloroleukemia (intraperitoneal) in B6D2F1 (BDF1) mice
# Details: endpoint: mean survival time, higher = longer survival
# Method: The antitumor activity of compounds was measured in mice bearing transplantable tumors. Survival or tumor size were measured and the results are expressed as the measurement made in the treated group (T) divided by the measurement made in the vehicle treated control group (C). The tumor model used in this assay is P1081 Chloroleukemia (intraperitoneal) in B6D2F1 (BDF1) mice
# [1] = dose: 1.25 mg/kg/injection, schedule: Q01DX Z (ip), vehicle: carboxymethylcellulose (CMC)
# [2] = dose: 62.5 mg/kg/injection, schedule: Q01DX Z (ip), vehicle: carboxymethylcellulose (CMC)
# [3] = dose: 125.0 mg/kg/injection, schedule: Q01DX Z (ip), vehicle: carboxymethylcellulose (CMC)
# [4] = dose: 250.0 mg/kg/injection, schedule: Q01DX Z (ip), vehicle: carboxymethylcellulose (CMC)
# [5] = dose: 500.0 mg/kg/injection, schedule: Q01DX Z (ip), vehicle: carboxymethylcellulose (CMC)
# [6] = dose: 2.5 mg/kg/injection, schedule: Q01DX010 (ip), vehicle: saline
# [7] = dose: 5.0 mg/kg/injection, schedule: Q01DX010 (ip), vehicle: saline
# [8] = dose: 62.5 mg/kg/injection, schedule: Q01DX010 (ip), vehicle: saline
# [9] = dose: 125.0 mg/kg/injection, schedule: Q01DX010 (ip), vehicle: saline
# [10] = dose: 250.0 mg/kg/injection, schedule: Q01DX010 (ip), vehicle: saline
smiles,measurement,setting,value
CC(CCC(C)OS(C)(=O)=O)OS(C)(=O)=O (stereo not drawn),T/C,[1],95 % of control
same,T/C,"dose: 2.5 mg/kg/injection, schedule: Q01DX Z (ip), vehicle: carboxymethylcellulose (CMC)",111 % of control
same,T/C,"dose: 4.0 mg/kg/injection, schedule: Q01DX010 (ip), vehicle: saline",100 % of control
same,T/C,"dose: 8.0 mg/kg/injection, schedule: Q01DX010 (ip), vehicle: saline",105 % of control
same,T/C,"dose: 16.0 mg/kg/injection, schedule: Q01DX010 (ip), vehicle: saline",115 % of control and 105 % of control
same,T/C,"dose: 32.0 mg/kg/injection, schedule: Q01DX010 (ip), vehicle: saline",116 % of control
same,T/C,"dose: 64.0 mg/kg/injection, schedule: Q01DX010 (ip), vehicle: saline",88 % of control
CSc1ncnc2c1ncn2C1OC(CO)C(O)C1O (stereo not drawn),T/C,"dose: 3.1 mg/kg/injection, schedule: Q01DX Z (ip), vehicle: carboxymethylcellulose (CMC)",105 % of control and 92 % of control
same,T/C,"dose: 6.25 mg/kg/injection, schedule: Q01DX Z (ip), vehicle: carboxymethylcellulose (CMC)",102 % of control
same,T/C,"dose: 12.5 mg/kg/injection, schedule: Q01DX Z (ip), vehicle: carboxymethylcellulose (CMC)",105 % of control and 90 % of control
same,T/C,"dose: 25.0 mg/kg/injection, schedule: Q01DX Z (ip), vehicle: carboxymethylcellulose (CMC)",105 % of control and 98 % of control
O=CN(O)CC(=O)O,T/C,[2],99 % of control
same,T/C,[3],109 % of control
same,T/C,[4],110 % of control
same,T/C,[5],101 % of control
Nc1nc(N)c2nc(CNc3ccc(C(=O)NC(CCC(=O)O)C(=O)O)cc3)cnc2n1 (stereo not drawn),T/C,"dose: 0.05 mg/kg/injection, schedule: Q01DX010 (ip), vehicle: other",120 % of control
same,T/C,"dose: 0.2 mg/kg/injection, schedule: Q01DX010 (ip), vehicle: other",160 % of control and 170 % of control
same,T/C,"dose: 0.4 mg/kg/injection, schedule: Q01DX010 (ip), vehicle: other",90 % of control
same,T/C,"dose: 8.0 micrograms/kg/injection, schedule: Q01DX Z (ip), vehicle: alkali diluted with saline",117 % of control
same,T/C,"dose: 16.0 micrograms/kg/injection, schedule: Q01DX Z (ip), vehicle: alkali diluted with saline",107 % of control
same,T/C,"dose: 31.0 micrograms/kg/injection, schedule: Q01DX Z (ip), vehicle: alkali diluted with saline",99 % of control
CC(=O)NC1=C(N2CC2)C(=O)C(NC(C)=O)=C(N2CC2)C1=O,T/C,"dose: 250.0 micrograms/kg/injection, schedule: Q01DX010 (ip), vehicle: saline",188 % of control and 210 % of control
same,T/C,"dose: 500.0 micrograms/kg/injection, schedule: Q01DX010 (ip), vehicle: saline",255 % of control and 270 % of control
same,T/C,"dose: 1000.0 micrograms/kg/injection, schedule: Q01DX010 (ip), vehicle: saline",115 % of control
C[C@H](N)C(=O)N[C@@H]1[C@H]2C(=C(O)C[C@@H](O)[C@@H]2O)C(=O)O[C@@H]1C,T/C,"dose: 93.8 mg/kg/injection, schedule: Q01DX Z (ip), vehicle: saline",124 % of control
same,T/C,"dose: 187.5 mg/kg/injection, schedule: Q01DX Z (ip), vehicle: saline",150 % of control
same,T/C,"dose: 250.0 mg/kg/injection, schedule: Q01DX Z (ip), vehicle: saline",161 % of control
same,T/C,"dose: 375.0 mg/kg/injection, schedule: Q01DX Z (ip), vehicle: saline",175 % of control
same,T/C,"dose: 500.0 mg/kg/injection, schedule: Q01DX Z (ip), vehicle: saline",153 % of control
same,T/C,"dose: 1000.0 mg/kg/injection, schedule: Q01DX Z (ip), vehicle: saline",119 % of control
NC(Cc1ccc(N(CCCl)CCCl)cc1)C(=O)O (stereo not drawn),T/C,[1],115 % of control
same,T/C,[6],150 % of control and 333 % of control
same,T/C,[7],327 % of control
same,T/C,"dose: 5.0 mg/kg/injection, schedule: Q01DX Z (ip), vehicle: carboxymethylcellulose (CMC)",189 % of control
same,T/C,"dose: 10.0 mg/kg/injection, schedule: Q01DX010 (ip), vehicle: saline",90 % of control
same,T/C,"dose: 10.0 mg/kg/injection, schedule: Q01DX Z (ip), vehicle: carboxymethylcellulose (CMC)",90 % of control
COc1ccc2c(c1OC)C(=O)O[C@@H]2[C@H]1c2c(cc3c(c2OC)OCO3)CCN1C,T/C,"dose: 31.3 mg/kg/injection, schedule: Q01DX010 (ip), vehicle: saline",88 % of control and 90 % of control
same,T/C,[8],88 % of control and 95 % of control
same,T/C,[9],88 % of control and 90 % of control
same,T/C,[10],88 % of control and 90 % of control
CC(=O)[C@H]1CC[C@H]2[C@@H]3C[C@H](C)C4=CC(=O)CC[C@]4(C)[C@H]3C(=O)C[C@]12C,T/C,"dose: 6.3 mg/kg/injection, schedule: Q01DX Z (sc), vehicle: steriod suspending solution",121 % of control
same,T/C,"dose: 12.5 mg/kg/injection, schedule: Q01DX Z (sc), vehicle: steriod suspending solution",110 % of control
same,T/C,"dose: 25.0 mg/kg/injection, schedule: Q01DX Z (sc), vehicle: steriod suspending solution",110 % of control
same,T/C,"dose: 50.0 mg/kg/injection, schedule: Q01DX Z (sc), vehicle: steriod suspending solution",101 % of control
same,T/C,"dose: 100.0 mg/kg/injection, schedule: Q01DX Z (sc), vehicle: steriod suspending solution",98 % of control
same,T/C,"dose: 200.0 mg/kg/injection, schedule: Q01DX Z (sc), vehicle: steriod suspending solution",105 % of control and 94 % of control
Nc1nc2n[nH]nc2c(=O)[nH]1,T/C,"dose: 50.0 mg/kg/injection, schedule: Q01DX Z (ip), vehicle: other",175 % of control
same,T/C,"dose: 100.0 mg/kg/injection, schedule: Q01DX Z (ip), vehicle: other",183 % of control
S=P(N1CC1)(N1CC1)N1CC1,T/C,"dose: 0.37 mg/kg/injection, schedule: Q01DX Z (ip), vehicle: saline",98 % of control
same,T/C,"dose: 0.75 mg/kg/injection, schedule: Q01DX Z (ip), vehicle: saline",96 % of control
same,T/C,"dose: 1.5 mg/kg/injection, schedule: Q01DX Z (ip), vehicle: saline",109 % of control
O=c1[nH]c(=O)n(C2CC(O)C(CO)O2)cc1Br (stereo not drawn),T/C,"dose: 16.0 mg/kg/injection, schedule: Q01DX Z (ip), vehicle: carboxymethylcellulose (CMC)",86 % of control
same,T/C,"dose: 31.0 mg/kg/injection, schedule: Q01DX Z (ip), vehicle: carboxymethylcellulose (CMC)",107 % of control and 88 % of control
same,T/C,[2],106 % of control and 99 % of control
same,T/C,[3],88 % of control
same,T/C,[4],101 % of control
O=c1cn[nH]c(=O)[nH]1,T/C,"dose: 4.0 mg/kg/injection, schedule: Q01DX Z (ip), vehicle: carboxymethylcellulose (CMC)",102 % of control
same,T/C,"dose: 8.0 mg/kg/injection, schedule: Q01DX Z (ip), vehicle: carboxymethylcellulose (CMC)",93 % of control
same,T/C,[8],95 % of control
same,T/C,[9],95 % of control
same,T/C,[3],123 % of control and 94 % of control
same,T/C,[10],90 % of control and 95 % of control
same,T/C,[4],117 % of control
same,T/C,"dose: 500.0 mg/kg/injection, schedule: Q01DX010 (ip), vehicle: saline",110 % of control and 100 % of control
same,T/C,[5],117 % of control
same,T/C,"dose: 1000.0 mg/kg/injection, schedule: Q01DX Z (ip), vehicle: carboxymethylcellulose (CMC)",97 % of control
O=NN(CCCl)C(=O)NCCCl,T/C,"dose: 1.0 mg/kg/injection, schedule: Q01DX Z (ip), vehicle: saline",95 % of control
same,T/C,"dose: 2.0 mg/kg/injection, schedule: Q01DX Z (ip), vehicle: saline",112 % of control and 96 % of control
same,T/C,"dose: 3.13 mg/kg/injection, schedule: Q01DX010 (ip), vehicle: saline",220 % of control
same,T/C,"dose: 4.0 mg/kg/injection, schedule: Q01DX Z (ip), vehicle: saline",114 % of control and 116 % of control
same,T/C,"dose: 6.25 mg/kg/injection, schedule: Q01DX010 (ip), vehicle: saline",290 % of control and 300 % of control
same,T/C,"dose: 8.0 mg/kg/injection, schedule: Q01DX Z (ip), vehicle: saline",118 % of control
same,T/C,"dose: 12.5 mg/kg/injection, schedule: Q01DX010 (ip), vehicle: saline",150 % of control
same,T/C,"dose: 16.0 mg/kg/injection, schedule: Q01DX Z (ip), vehicle: saline",92 % of control
CCCCCCCCCCCCNCCCCCCCCCCCC,T/C,"dose: 0.24 mg/kg/injection, schedule: Q01DX Z (ip), vehicle: saline",91 % of control
same,T/C,"dose: 0.48 mg/kg/injection, schedule: Q01DX Z (ip), vehicle: carboxymethylcellulose (CMC)",112 % of control
same,T/C,"dose: 0.48 mg/kg/injection, schedule: Q01DX Z (ip), vehicle: saline",90 % of control
same,T/C,"dose: 1.9 mg/kg/injection, schedule: Q01DX Z (ip), vehicle: carboxymethylcellulose (CMC)",101 % of control
same,T/C,"dose: 1.9 mg/kg/injection, schedule: Q01DX Z (ip), vehicle: saline",94 % of control
same,T/C,"dose: 3.8 mg/kg/injection, schedule: Q01DX Z (ip), vehicle: carboxymethylcellulose (CMC)",103 % of control
CC[n+]1c(-c2ccccc2)c2cc(N)ccc2c2ccc(N)cc21,T/C,[6],165 % of control and 222 % of control
same,T/C,[7],190 % of control and 333 % of control
same,T/C,"dose: 20.0 mg/kg/injection, schedule: Q01DX010 (ip), vehicle: saline",100 % of control
